From PubChem BioAssay AID248 (DTP/NCI, 2004)
Toxic doses and inconclusive results are not listed.

System: L1210 leukemia ip in BDF1 mice, survival T/C
Assay: NCI In Vivo Anticancer Drug Screen. Data for tumor model L1210 Leukemia (intraperitoneal) in B6D2F1 (BDF1) mice
Conditions: higher = longer survival
Procedure, shortened: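 Tumor was transplanted into mice, which were then dosed with test compound or vehicle alone. Survival was recorded for each group, and the treated figure was expressed relative to the control figure.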

[1] = endpoint: mean survival time, dose: 100.0 mg/kg/injection, schedule: Q01DX009 (ip), vehicle: Klucel (hydroxypropylcellulose) (HPC)

SMILES: CCOC(=O)c1ccc(N(CC(=O)CN=[N+]=[N-])S(=O)(=O)c2ccc(C)cc2)cc1
- T/C (endpoint: mean survival time, dose: 100.0 mg/kg/injection, schedule: Q01DX009 (ip), vehicle: saline with Tween-80): 96 % of control
- T/C (endpoint: mean survival time, dose: 200.0 mg/kg/injection, schedule: Q01DX009 (ip), vehicle: saline with Tween-80): 96 % of control
- T/C (endpoint: mean survival time, dose: 400.0 mg/kg/injection, schedule: Q01DX009 (ip), vehicle: saline with Tween-80): 89 % of control

SMILES: COC(=O)c1c[nH]c2cc(OC(C)C)c(OC(C)C)cc2c1=O
- T/C (endpoint: mean survival time, dose: 100.0 mg/kg/injection, schedule: Q01DX001 (ip), vehicle: saline with Tween-80): 96 % of control
- T/C (endpoint: mean survival time, dose: 200.0 mg/kg/injection, schedule: Q01DX001 (ip), vehicle: saline with Tween-80): 91 % of control
- T/C (endpoint: mean survival time, dose: 400.0 mg/kg/injection, schedule: Q01DX001 (ip), vehicle: saline with Tween-80): 100 % of control

SMILES: COCC(O)CC#N (configuration not stated)
- T/C (endpoint: mean survival time, dose: 100.0 mg/kg/injection, schedule: Q01DX009 (ip), vehicle: saline): 117 % of control
- T/C (endpoint: mean survival time, dose: 200.0 mg/kg/injection, schedule: Q01DX009 (ip), vehicle: saline): 113 % of control
- T/C (endpoint: mean survival time, dose: 400.0 mg/kg/injection, schedule: Q01DX009 (ip), vehicle: saline): 111 % of control

SMILES: CC1(C)NC(=O)C(/C=C/c2ccccc2)O1 (configuration not stated)
- T/C (endpoint: mean survival time, dose: 25.0 mg/kg/injection, schedule: Q01DX009 (ip), vehicle: Klucel (hydroxypropylcellulose) (HPC)): 102 % of control
- T/C (endpoint: mean survival time, dose: 25.0 mg/kg/injection, schedule: Q04DX003 (ip), vehicle: Klucel (hydroxypropylcellulose) (HPC)): 97 % of control
- T/C (endpoint: mean survival time, dose: 50.0 mg/kg/injection, schedule: Q01DX009 (ip), vehicle: Klucel (hydroxypropylcellulose) (HPC)): 100 % of control
- T/C (endpoint: mean survival time, dose: 50.0 mg/kg/injection, schedule: Q04DX003 (ip), vehicle: Klucel (hydroxypropylcellulose) (HPC)): 95 % of control
- T/C [1]: 89 % of control
- T/C (endpoint: mean survival time, dose: 100.0 mg/kg/injection, schedule: Q04DX003 (ip), vehicle: Klucel (hydroxypropylcellulose) (HPC)): 97 % of control
- T/C (endpoint: mean survival time, dose: 200.0 mg/kg/injection, schedule: Q04DX003 (ip), vehicle: Klucel (hydroxypropylcellulose) (HPC)): 92 % of control
- T/C (endpoint: mean survival time, dose: 400.0 mg/kg/injection, schedule: Q04DX003 (ip), vehicle: Klucel (hydroxypropylcellulose) (HPC)): 101 % of control

SMILES: CCCCCCCCCC(=O)N(C)OC
- T/C (endpoint: mean survival time, dose: 100.0 mg/kg/injection, schedule: Q04DX003 (ip), vehicle: saline with Tween-80): 87 % of control
- T/C (endpoint: mean survival time, dose: 200.0 mg/kg/injection, schedule: Q04DX003 (ip), vehicle: saline with Tween-80): 88 % of control
- T/C (endpoint: mean survival time, dose: 400.0 mg/kg/injection, schedule: Q04DX003 (ip), vehicle: saline with Tween-80): 92 % of control

SMILES: COc1ccc(COC(=O)Nc2ccc(Br)cc2)c(OC)c1
- T/C [1]: 98 % of control
- T/C (endpoint: mean survival time, dose: 200.0 mg/kg/injection, schedule: Q01DX009 (ip), vehicle: Klucel (hydroxypropylcellulose) (HPC)): 104 % of control
- T/C (endpoint: mean survival time, dose: 400.0 mg/kg/injection, schedule: Q01DX009 (ip), vehicle: Klucel (hydroxypropylcellulose) (HPC)): 101 % of control

SMILES: C[C@H](CN1CC(=O)NC(=O)C1)N1CC(=O)NC(=O)C1
- T/C (endpoint: mean survival time, dose: 25.0 mg/kg/injection, schedule: Q04DX003 (ip), vehicle: saline): 124 % of control
- T/C (endpoint: mean survival time, dose: 25.0 mg/kg/injection, schedule: Q04DX003 (ip), vehicle: water): 104 % of control
- T/C (endpoint: mean survival time, dose: 50.0 mg/kg/injection, schedule: Q04DX003 (ip), vehicle: saline): 117 % of control
- T/C (endpoint: mean survival time, dose: 50.0 mg/kg/injection, schedule: Q04DX003 (ip), vehicle: water): 110 % of control
- T/C (endpoint: mean survival time, dose: 100.0 mg/kg/injection, schedule: Q04DX003 (ip), vehicle: saline): 117 % of control
- T/C (endpoint: mean survival time, dose: 200.0 mg/kg/injection, schedule: Q04DX003 (ip), vehicle: saline): 158 % of control
- T/C (endpoint: mean survival time, dose: 200.0 mg/kg/injection, schedule: Q04DX003 (ip), vehicle: water): 152 % of control
- T/C (endpoint: mean survival time, dose: 400.0 mg/kg/injection, schedule: Q04DX003 (ip), vehicle: saline): 182 % of control
- T/C (endpoint: mean survival time, dose: 400.0 mg/kg/injection, schedule: Q04DX003 (ip), vehicle: water): 184 % of control
- T/C (endpoint: mean survival time, dose: 800.0 mg/kg/injection, schedule: Q04DX003 (ip), vehicle: saline): 187 % of control
- T/C (endpoint: mean survival time, dose: 800.0 mg/kg/injection, schedule: Q04DX003 (ip), vehicle: water): 107 % of control
- T/C (endpoint: median survival time, dose: 8.0 mg/kg/injection, schedule: Q03HX008 (ip), vehicle: saline): 153 % of control
- T/C (endpoint: median survival time, dose: 8.0 mg/kg/injection, schedule: Q03HX016 (ip), vehicle: saline): 204 % of control
- T/C (endpoint: median survival time, dose: 16.0 mg/kg/injection, schedule: Q01DX009 (sc), vehicle: saline): 152 % of control
- T/C (endpoint: median survival time, dose: 16.0 mg/kg/injection, schedule: Q03HX008 (ip), vehicle: saline): 163 % of control
- T/C (endpoint: median survival time, dose: 16.0 mg/kg/injection, schedule: Q03HX016 (ip), vehicle: saline): 203 % of control
- T/C (endpoint: median survival time, dose: 16.0 mg/kg/injection, schedule: Q03HX024 (ip), vehicle: saline): 98 % of control
- T/C (endpoint: median survival time, dose: 32.0 mg/kg/injection, schedule: Q01DX009 (sc), vehicle: saline): 156 % of control
- T/C (endpoint: median survival time, dose: 32.0 mg/kg/injection, schedule: Q03HX008 (ip), vehicle: saline): 160 % of control
- T/C (endpoint: median survival time, dose: 32.0 mg/kg/injection, schedule: Q03HX024 (ip), vehicle: saline): 94 % of control
- T/C (endpoint: median survival time, dose: 64.0 mg/kg/injection, schedule: Q01DX001 (ip), vehicle: saline): 102 % of control
- T/C (endpoint: median survival time, dose: 64.0 mg/kg/injection, schedule: Q01DX009 (sc), vehicle: saline): 110 % of control
- T/C (endpoint: median survival time, dose: 64.0 mg/kg/injection, schedule: Q04DX003 (ip), vehicle: saline): 108 % of control
- T/C (endpoint: median survival time, dose: 64.0 mg/kg/injection, schedule: Q04DX003 (sc), vehicle: saline): 121 % of control
- T/C (endpoint: median survival time, dose: 64.0 mg/kg/injection, schedule: Q08DX002 (ip), vehicle: saline): 109 % of control
- T/C (endpoint: median survival time, dose: 128.0 mg/kg/injection, schedule: Q01DX001 (ip), vehicle: saline): 107 % of control
- T/C (endpoint: median survival time, dose: 128.0 mg/kg/injection, schedule: Q01DX009 (sc), vehicle: saline): 93 % of control
- T/C (endpoint: median survival time, dose: 128.0 mg/kg/injection, schedule: Q03HX008 (ip), vehicle: saline): 152 % of control
- T/C (endpoint: median survival time, dose: 128.0 mg/kg/injection, schedule: Q04DX003 (ip), vehicle: saline): 124 % of control
- T/C (endpoint: median survival time, dose: 128.0 mg/kg/injection, schedule: Q08DX002 (ip), vehicle: saline): 107 % of control
- T/C (endpoint: median survival time, dose: 256.0 mg/kg/injection, schedule: Q01DX001 (ip), vehicle: saline): 109 % of control
- T/C (endpoint: median survival time, dose: 256.0 mg/kg/injection, schedule: Q04DX003 (sc), vehicle: saline): 172 % of control
- T/C (endpoint: median survival time, dose: 512.0 mg/kg/injection, schedule: Q01DX001 (ip), vehicle: saline): 120 % of control
- T/C (endpoint: median survival time, dose: 512.0 mg/kg/injection, schedule: Q04DX003 (ip), vehicle: saline): 157 % of control
- T/C (endpoint: median survival time, dose: 512.0 mg/kg/injection, schedule: Q04DX003 (sc), vehicle: saline): 202 % of control
- T/C (endpoint: median survival time, dose: 512.0 mg/kg/injection, schedule: Q08DX002 (ip), vehicle: saline): 121 % of control
- T/C (endpoint: median survival time, dose: 1024.0 mg/kg/injection, schedule: Q04DX003 (ip), vehicle: saline): 193 % of control
- T/C (endpoint: median survival time, dose: 1024.0 mg/kg/injection, schedule: Q04DX003 (sc), vehicle: saline): 180 % of control
- T/C (endpoint: median survival time, dose: 1024.0 mg/kg/injection, schedule: Q08DX002 (ip), vehicle: saline): 179 % of control
